In article PMC2678990, “Stilbene glycosides are natural product inhibitors of FGF-2-induced angiogenesis” (BMC Cell Biology, 2009):

Tests used:
human umbilical vein ECs = tested on: human umbilical vein ECs; parameters: method as in PMID 11092574; settings: cited from earlier work
HDMEC [1] = assay: Toxicity: MTT and active caspase-3 assays; type: cell-based, human; settings: HDMEC; MTT 72 h and active caspase-3 24 h; staurosporine positive control
Experimental: (§1) Stilbene glycoside toxicity was determined using the MTT and active caspase-3 assays. BAECs or HDMECs (7.5 × 10^3) were seeded in a 96 well plate and incubated for 4 h to allow cell adhesion. The test compound or staurosporine (1 μM), an inducer of active caspase-3 and therefore of apoptosis was added to the wells. Control cells were treated with PBS and the plate was incubated at room temperature for 72 hours. MTT reagent (10 μl) was added followed by incubation at room temperature for 2–4 h. When a purple precipitate was visible, detergent reagent (100 μl) was added to the plates and incubated at room temperature for 2 h in the dark. Absorbance was measured at 570 nm using a microplate reader.
In the apoptosis assay, HDMECs or BAEC (4 × 10^4/ml) in complete medium were added to the chambers slide and allowed to adhere for 24 h. The test compound (X μM) or staurosporine (1 μM) were added to all wells except control (PBS) and incubated for 24 hours. Wells treated with staurosporine were immediately washed (PBS) and fixed (4% paraformaldehyde) when cell morphology became round (2–4 h). After washing and fixing, cells were permeablized (0.1% Triton X-100; 10 min), washed (× 5~5 min each), air dried and blocked with 1% BSA in 1:50 TBS-Tween for 1 h at room temperature. Cells were incubated with goat anti-active caspase-3 (R&D system, UK; 1% BSA in TBS-Tween) for 1 h. […]

BAEC [2] = assay: Toxicity: MTT and active caspase-3 assays; type: cell-based, bovine; settings: MTT 72 h and active caspase-3 24 h, staurosporine 1.0-1.4 μM positive control
Experimental: Figure 2 The effect of compounds 1 and 2 on BAEC viability. The cytotoxic effect was determined using (A) The MTT assay; cells (7.5 × 10^3) were incubated with the test compounds or with staurosporine (1.4 μM) an inducer of active caspase-3 and of apoptosis for 72 h and MTT added. The absorbance was read at 570 nm. (B) Active-caspase-3 apoptosis assay: cells (4.0 × 10^4/ml) were incubated with the test compounds or with staurosporine (1.0 μM, 24 h) and stained with anti-active caspase-3 as described below. Experiments were performed in triplicate. Representative immunofluorescence photomicrographs for BAEC were taken as described below. A group of apoptotic cells are highlighted in II.
as §1, with “reader. […]” for “reader.”

[3] = tested on: chick chorioallantoic membrane; assay: Chick chorioallantoic membrane (CAM) assay; type: in vivo; settings: FGF-2 (25 ng) alone
Experimental: The angiogenic activity of test compounds was determined using the semi-quantitative chick chorioallantoic assay (CAM) as described previously. To expose the CAM a window was created in the shells of 4 day-old chicken eggs. […] […] This approach enabled calculation of an accumulated response in each group. To photograph the membrane, 2 cm^3 of a 50% emulsion of aqueous paraffin oil containing 2% Tween-80 was injected at the site of application and photographed using a Leitz dissecting microscope. Each experiment was performed five times and statistical significance was determined by the Mann-Whitney U test and the data is expressed as a median value (m).

phospho-ERK1/2 in BAEC = assay: Western blot of ERK1/2 phosphorylation; type: cell-based, bovine; settings: FGF-2 addition
Experimental: Figure 9 (A) Western blots of p-ERK-1 and -2 were performed on BAEC treated with compound 1 as described below. (B) The bar charts show relative protein expression compared to the control given an arbitrary value of 1.0. All experiments were performed at least twice and a representative example is shown. Lane 1 control, lane 2 FGF-2 (25 ng/ml), lane 3 compound 1 ([…]), lane 4 compound 1 (14.3 μM) + FGF-2, lane 5 compound 1 (28.6 μM), lane 6 compound 1 (28.6 μM) + FGF-2.
The method is described in detail elsewhere. In brief, cells were lysed in RIPA buffer, protein concentration determined using the Biorad assay, and approximately 20 μg aliquots separated by 12% SDS-PAGE, electroblotted onto nitrocellulose filters (Hoefer, San Francisco, Ca, USA), blocked overnight with 1% BSA in TBS-Tween and incubated for 4 h at RT with characterised antibodies to phosphor-ERK1/2 (AutogenBioclear, mouse monoclonal, 1:1000). α-Actin (Sigma, UK; 1:1000) was used as a loading control. Filters were washed in TBS-Tween and stained with antibodies to peroxidase-conjugated secondary antibody. Proteins were detected with the ECL system (Amersham, UK). Protein expression was estimated spectrophotometrically from band intensity. Results are semi-quantitative and given a numerical value compared to the weakest observed band assigned an arbitrary value of 1.0. […]

BAEC [4] = assay: FGF-2 invasion in Matrigel; type: cell-based, bovine; settings: FGF-2 treated
Experimental: The effect of the test compounds on cell invasion was investigated using a Transwell Boyden chamber system coated with reconstituted growth factor-depleted Matrigel. […] Representative photomicrographs for the effect of compound 1 are shown (Figure 7B).
Figure 7 The effect of compounds 1 (AI) and 2 (AII) on BAEC invasion into a Matrigel layer was studied using the chemoinvasion assay described below. Cells (1.7 × 10^4) were added to the Matrigel coated upper Boyden chamber and the compounds with or without FGF-2 added to the lower chamber. Cell invasion was measured after 24 h and assessed as described below. […] Results are the mean of three experiments. (B) Representative photomicrographs are shown for the effect of compound 1 on BAEC (original magnification × 20).
The procedure described above was repeated and wells having a uniform network of tubes were used to assess invasion into a second layer of Matrigel. Matrigel (100 μl), with and without the test compounds was added to the cells and allowed to polymerise (1 h at 37°C). FCS (15%) was added and the cells incubated for 24–72 h when tube growth into the upper layer was measured as described above.

BAEC [5] = assay: FGF-2-induced tube formation in Matrigel; type: cell-based, bovine; settings: FGF-2 25 ng/ml
Experimental: (§2) Cells (1.0 × 10^6/ml) were mixed with an equal volume of Matrigel (Becton -Dickinson, Oxford, UK; prepared according to the supplier's instructions) at 4°C. Aliquots (80 μl) were added to the wells of a 48-well plate and allowed to polymerise (1 h) then 500 μl of 15% FCS containing FGF-2 (25 ng/ml; or other growth factors), with or without test compounds was added. The cells were incubated for 24 h at 37°C then fixed in 4% paraformaldehyde (5 min), washed in cold ethanol and the plate air dried. Cells were stained with Geimsa (30 s), air dried and photographed. Ten random fields were selected and the number of closed tubes counted.

HDMEC [6] = assay: FGF-2 invasion in Matrigel; type: cell-based, human; settings: FGF-2 treated
HDMEC [7] = assay: FGF-2-induced tube formation in Matrigel; type: cell-based, human; settings: FGF-2 25 ng/ml
Experimental: as §2

**Q.** Which “Concentrations inhibiting differentiation into capillary-like structures” value (human umbilical vein ECs) does the source give for `Oc1ccc(/C=C/c2cc(O)cc(O)c2)cc1` [resveratrol] here?
**A.** 0.1 to 1 mM

**Q.** What does the source list for `CN[C@@H]1C[C@H]2O[C@@](C)([C@@H]1OC)n1c3ccccc3c3c4c(c5c6ccccc6n2c5c31)C(=O)NC4` [staurosporine, reference compound]?
**A.** Cytotoxic effect (HDMEC [1]): significant cytotoxicity; Cytotoxic effect (BAEC [2]): significant cytotoxicity

**Q.** Which results are given for “FGF-2: fibroblast growth factor-2, pro-angiogenic growth factor used as stimulus”?
**A.** Degree of angiogenesis (m), median score [3]: 3; Increase in ERK1/2 phosphorylation compared to the control (phospho-ERK1/2 in BAEC): 50%; Increase in migration into a second layer of Matrigel (BAEC [4]): 3.2 fold; Increase in differentiation into capillary-like structures (BAEC [5]): approximately 4.0 fold; Increase in migration into a second layer of Matrigel (HDMEC [6]): 3.0 fold; Increase in differentiation into capillary-like structures (HDMEC [7]): approximately 4.0 fold
